Experimental data from patent US20240301408A1, “MICRORNA 195 COMPOSITIONS AND METHODS FOR TREATING COGNITIVE IMPAIRMENT” (UNITED STATES GOVERNMENT AS REPRESENTED BY THE DEPARTMENT …, priority 2021, published 2024).
“Also recorded” adds a separate entry of the source.

Legend:
[1] = system: exosomal miR-195-5p; test: brain and serum exosomal miR-195-5p levels in mice treated with synj1-lowering agents; type: in vivo, mouse; settings: for serum exosomal miR-195 levels: treated 5×FAD mice versus vehicle controls, N=6-8/group; for brain exosomal miR-195-5p levels: treated mice versus controls
Method: As disclosed herein, a study was performed to examine exosomal fractions of brain and serum samples of synj1 haploinsufficiency mice (ApoE3 synj1^+/− and ApoE4 synj1^+/−) as well as of mice treated with synj1-lowering agents (SynaptoCpd #9 and Cpd #6). Exosomes were purified using sucrose gradient fractionation methods and the purity of exosome fractions were evaluated by western blot analysis of exosomal protein markers such as ALIX, and uptake studies of fluorescence tagged exosomes by human iPSC-derived astrocyte cultures. […] In addition, serum exosomal miR-195-5p levels were positively correlated with brain exosomal miR-195-5p levels and cognitive performance (NOR preference index and Y maze SAP scores), and reversely correlated with brain insoluble pTau and synj1 protein levels in drug-treated mouse cohorts (FIG. 19C).

[2] = system: ApoE receptors; test: miR-195 levels in ApoE-/- neurons treated with ApoE3-CM or ApoE4-CM in the presence of RAP; type: cell-based, mouse; settings: N=3/group
Method: Mouse Neuronal and human iPSC culture. Primary cortical neurons were cultured (Zhu L et al., Proc Natl Acad Sci USA 2015, and Zhu L et al., J Biol Chem 2013) before being fixed and stained for confocal microscopy analysis (Zeiss LSM) (Berg I et al., Nat Protoc 2010). In some conditions, bovine serum albumin (BSA) or receptor-associated protein (RAP) was included in the cultured media (N=3/group). Alternatively, cultured neurons were transfected with adeno-associated virus 2 (AAV2)-containing miR-195-5p or miR-374 or scramble controls for 5 days before subjected to analysis. […]
Statistical analysis. […] Levels of miR-195-5p and miR-374 were normalized to U6 and RNU6B (internal controls) while synj1 mRNA normalized to GAPDH and 18s, and then expressed as Log2fold of changes when compared to controls. Levels of synj1, dyn1, pTau, Tau, and holoAPP were normalized to β-actin levels and expressed as a percentage of the control. Absolute Aβ42, Aβ40, pTau, Tau, and ApoE concentrations were quantitatively determined by ELISA and expressed as a percentage of the control. […] Pearson correlation coefficients were calculated to determine the linear relationship between the two variables. […]

Row | Molecule | serum exosomal miR-195 levels [1] | brain exosomal miR-195-5p levels [1] | miR-195 levels ([2]; ApoE4 CM+RAP (ApoE4 CM+BSA −3.193±0.144)) | miR-195 levels ([2]; RAP in the presence of ApoE3-CM)
1 | COCCOC(=O)C1=C(C)NC(C)=C(C(=O)OC(C)C)C1c1ccc(C(F)(F)F)cc1 (stereo not drawn) [Cpd #6] | much higher; also recorded: significantly elevated | much higher | – | –
2 | RAP: ApoE-receptor associated protein, an inhibitor of ApoE receptors | – | – | −2.678±0.054 log2FC | −1.648±0.125 log2FC
3 | COCCOC(=O)C1=C(C)NC(C)=C(C(=O)OC(C)C)C1c1ccc(C(C)(C)C)cc1 (stereo not drawn) [Cpd #9] | much higher; also recorded: significantly elevated | much higher | – | –
